Laboratory results: patent US10815197B2, “N-sulfonyl benzamides as voltage-gated sodium channel inhibitors” (SHANGHAI HAIYAN PHARMACEUTICAL TECHNOLOGY CO., LTD., priority 2016, dated 2020)

Tests used:
hNav1.7 = molecular target: T1, hNav1.7 (Homo sapiens, UniProt Q15858); assay: Manual patch clamp experiment hNav1.7 (CHO-hNav1.7 stable cell line); type: cell-based; details: for inhibition at 0.1 µM: compound at 100 nM, read-out: Inhibition of Nav1.7 100 nM(%); for inhibition at 1 µM: compound at 1000 nM, read-out: Inhibition of Nav1.7 1000 nM(%)
T1 construct: host or cells: CHO
T1 sequence (Q15858 whole entry): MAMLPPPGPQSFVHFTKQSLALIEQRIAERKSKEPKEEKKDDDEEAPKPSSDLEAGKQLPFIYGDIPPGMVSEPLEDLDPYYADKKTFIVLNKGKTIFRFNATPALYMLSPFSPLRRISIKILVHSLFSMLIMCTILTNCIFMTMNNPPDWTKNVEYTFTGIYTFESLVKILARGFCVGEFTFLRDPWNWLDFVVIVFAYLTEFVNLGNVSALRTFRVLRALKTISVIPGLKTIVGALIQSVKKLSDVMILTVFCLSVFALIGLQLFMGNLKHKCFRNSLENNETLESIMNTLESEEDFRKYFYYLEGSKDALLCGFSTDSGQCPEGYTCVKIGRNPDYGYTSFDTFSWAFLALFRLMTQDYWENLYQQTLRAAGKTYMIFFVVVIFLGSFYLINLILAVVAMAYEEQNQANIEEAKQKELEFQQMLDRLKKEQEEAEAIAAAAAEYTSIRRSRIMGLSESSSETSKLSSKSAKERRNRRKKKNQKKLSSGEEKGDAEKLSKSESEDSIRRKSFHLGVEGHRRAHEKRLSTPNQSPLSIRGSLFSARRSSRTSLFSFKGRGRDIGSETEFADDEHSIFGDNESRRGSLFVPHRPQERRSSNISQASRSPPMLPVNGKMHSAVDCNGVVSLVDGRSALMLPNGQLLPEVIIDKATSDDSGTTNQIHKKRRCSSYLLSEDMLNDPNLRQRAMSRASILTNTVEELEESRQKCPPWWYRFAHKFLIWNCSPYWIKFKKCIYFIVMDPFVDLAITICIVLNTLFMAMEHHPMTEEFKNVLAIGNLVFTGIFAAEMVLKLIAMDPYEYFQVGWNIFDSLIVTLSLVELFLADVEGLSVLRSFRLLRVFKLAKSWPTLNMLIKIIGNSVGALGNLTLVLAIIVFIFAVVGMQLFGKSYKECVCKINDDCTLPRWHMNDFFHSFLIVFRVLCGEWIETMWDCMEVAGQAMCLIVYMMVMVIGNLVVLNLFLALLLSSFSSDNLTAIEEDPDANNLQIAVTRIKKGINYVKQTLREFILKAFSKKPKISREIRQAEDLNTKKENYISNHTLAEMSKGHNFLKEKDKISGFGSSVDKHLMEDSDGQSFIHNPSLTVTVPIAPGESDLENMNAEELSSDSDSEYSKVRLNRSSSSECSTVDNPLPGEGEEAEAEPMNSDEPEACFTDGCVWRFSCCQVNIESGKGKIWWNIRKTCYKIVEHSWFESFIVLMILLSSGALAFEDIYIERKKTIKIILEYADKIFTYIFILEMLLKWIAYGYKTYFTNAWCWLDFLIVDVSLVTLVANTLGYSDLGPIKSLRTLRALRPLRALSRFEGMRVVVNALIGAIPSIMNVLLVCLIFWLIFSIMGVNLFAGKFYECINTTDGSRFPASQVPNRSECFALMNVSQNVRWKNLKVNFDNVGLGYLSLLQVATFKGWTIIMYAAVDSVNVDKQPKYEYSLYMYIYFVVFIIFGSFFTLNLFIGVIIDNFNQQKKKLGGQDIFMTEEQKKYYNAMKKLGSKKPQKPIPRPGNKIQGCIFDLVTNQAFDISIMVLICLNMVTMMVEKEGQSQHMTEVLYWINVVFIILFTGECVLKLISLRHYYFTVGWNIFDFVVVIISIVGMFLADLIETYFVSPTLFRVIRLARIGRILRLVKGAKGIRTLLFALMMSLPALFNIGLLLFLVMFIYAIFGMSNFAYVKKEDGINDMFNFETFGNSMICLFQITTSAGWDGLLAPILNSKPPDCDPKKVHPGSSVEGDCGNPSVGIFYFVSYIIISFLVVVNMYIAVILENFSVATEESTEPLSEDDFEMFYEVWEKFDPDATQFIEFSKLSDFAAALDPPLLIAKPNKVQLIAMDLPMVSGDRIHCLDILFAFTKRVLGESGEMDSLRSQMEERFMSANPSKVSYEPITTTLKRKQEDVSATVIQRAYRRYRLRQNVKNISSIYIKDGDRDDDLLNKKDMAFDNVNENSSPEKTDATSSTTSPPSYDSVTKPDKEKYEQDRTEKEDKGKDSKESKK
In short: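 Whole-cell manual patch clamp on CHO-hNav1.7 or HEK-hNav1.5 cells, extracellular pH 7.3, CsF-based internal. Sodium current elicited by 20 ms steps to −10 mV from either V1/2 holding (with 50 ms −120 mV prepulse) or −120 mV holding, every 10 s; inhibition from current before versus after dosing, IC50 by Hill fit.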

[1] = Metabolism stability assay, human liver microsomes; type: in vitro ADME; details: for half-life at 1 µM: pH 7.4
Method: Assay 4: Metabolism Stability Assay 1. […] Buffer A: 1 L solution of 100 mM potassium dihydrogen phosphate containing 1 mM EDTA (Sigma, V900157-100G) was prepared. Buffer B: 1 L solution of 100 mM dipotassium hydrogen phosphate containing 1 mM EDTA was prepared. Buffer C: 700 mL of buffer B was taken out and titrated with buffer A to pH 7.4. 2. […] 2.2 20 μl (20 mg/mL) of liver microsomes (Corning Lot. NO. 4133007) stock solution was added to 513.4 μl of buffer C on wet ice. 0.75 mg/mL liver microsomal solution was obtained. 2.3 1.5 μl of each of the above-mentioned compound to be tested and ketanserin solution was added to 498.5 μl of liver microsomal solution (0.7 5 mg/mL) respectively on wet ice. 1.5 μM mixed solution of compound to be tested and 1.5 μM mixed solution of ketanserin were obtained. 2.4 At the time points 0, 5, 15, 30, 45, and 60 min, 30 μl of the mixed solution of compound to be tested and 30 μl of the mixed solution of ketanserin were dispensed into the reaction plate on wet ice, respectively. 2.5 5 mg reduced coenzyme II (Roche, 10621706001) was weighed and dissolved in 1 mL of buffer C. 6 mM reduced coenzyme II solution was obtained. The reduced coenzyme II solution was dispensed into the reaction plate. 2.6 Imipramine was dissolved to give a 10 mM solution. 10 μl of imipramine solution was added to 100 mL of blank acetonitrile to generate the internal reference. 2.7 At 0 min, 135 μL of iced acetonitrile (Merck (Lot. 1778229518)) containing the internal reference was added to each well and then 15 μL of buffer C was added. 2.8 The reaction plate was placed into a 37° C. water bath incubator for 5 min. In the reaction plate, 15 μL of reduced coenzyme II solution was added to each well to initiate the reaction, and the timing was started. At the time points of 5, 15, 30, 45, and 60 min, 135 μL of iced acetonitrile containing the internal reference was added to each well to terminate the reaction. 2.9 The reaction plate was sealed with an aluminum film, placed on a vibration mixer and shaken at 500 rpm for 5 min. The plate was then centrifuged in a centrifuge at 3750 rp for 15 min. 2.10 The sample was diluted with pure water in accordance with the ratio of 1:1 and detected by LC/MS. Half-life: 0.693/K (the slope by plotting based on the incubation time and logarithm of the concentration value) Clearance ratio: (0.693/half-life)*(1/protein concentration (0.5 mg/mL))*(proportional factor) Wherein, the K value and the proportional factor were calculated by those skilled in the art according to the methods described in the prior art and contained in the instructions of the liver microsome product.

Compound | inhibition at 0.1 µM (hNav1.7) [%] | inhibition at 1 µM (hNav1.7) [%] | Clearance [1] [mL/min/kg] | T1/2(min) [1] | half-life at 1 µM [1] [h] | IC50 (hNav1.7; read-out: Nav1.7(IC50/nM)) [nM]
Cc1ccc(N2CCN(Cc3cc(F)c(C(=O)NS(=O)(=O)C4CC4)cc3Cl)CC2)cc1Cl [Compound Z-177] | 89.2 | 98 | 0.00 | ∞ |  | 
C[C@@H]1CN(c2ccc(Cl)c(Cl)c2)CCN1Cc1cc(F)c(C(=O)NS(=O)(=O)C2CC2)cc1Cl [Compound Z-172, (R)-5-Chloro-N-(cyclopropylsulfonyl)-4-((4-(3,4-dichlorophenyl)-2-methylpiperazin-1-yl)methyl)-2-fluorobenzamide] | 89.1 | 97.2 | 2.20 |  | 13.1 | 
O=C(NS(=O)(=O)C1CC1)c1cc(Cl)c(CN2CCN(c3ccc(C4CC4)c(Cl)c3)CC2)cc1F [Compound Z-173] | 93.8 | 100 | 6.20 |  | 4.67 | 

Now from value to molecule:

inhibition at 0.1 µM (hNav1.7) [%] | inhibition at 1 µM (hNav1.7) [%] | Clearance [1] [mL/min/kg] | T1/2(min) [1] | half-life at 1 µM [1] [h] | IC50 (hNav1.7; read-out: Nav1.7(IC50/nM)) [nM] | Compound
89.1 | 98.7 | 23.88 |  | 1.21 |  | CCc1cc(N2CCN(Cc3cc(F)c(C(=O)NS(=O)(=O)C4CC4)cc3Cl)CC2)ccc1Cl [Compound Z-178]
89.7 | 102 | 20.12 |  | 1.44 | 24.6 | Cc1cc(N2CCN(Cc3cc(F)c(C(=O)NS(=O)(=O)C4CC4)cc3Cl)CC2)ccc1Cl [Compound Z-164]
83.8 | 99.2 | 2.74 | ∞ |  |  | CCc1cc(C(=O)NS(=O)(=O)C2CC2)c(F)cc1CN1CCN(c2ccc(OC(F)(F)F)cc2)CC1 [Compound Z-189, N-(cyclopropylsulfonyl)-5-ethyl-2-fluoro-4-((4-(4-(trifluoromethoxy)phenyl)piperazin-1-yl)methyl)benzamide]
